# Test system: fungi
# Assay: Observed contribution of nutrients to antifungal activity
# Type: cell-based
# Conditions: nutrient of the antimicrobial mixture
row,Structure (SMILES),contribution to the antifungal activity of the antimicrobial mixture
1,O=C(O)CC(O)(CC(=O)O)C(=O)O [citrate],contribute minimally
2,NCC(=O)O [glycine],contribute minimally
3,CC(O)C(=O)O (stereo not shown) [lactate],follows the glucose with regard to the significance of its contribution
4,O=C1O[C@H]([C@@H](O)CO)C(O)=C1O [ascorbic acid],contribute minimally

# Reference: US10632202B2, “Preservative containing compositions” (JOHNSON & JOHNSON CONSUMER INC., priority 2016, dated 2020)
